Read-outs that look alike come from different tables or passages of the source.
Columns and labels:
Format in all cases: biochemical
PI3K δ = molecular target: T1, PI3K δ (Homo sapiens, UniProt O00329); assay: PI 3-Kinase (human) HTRF assay, PI3K δ; conditions: read-out: PI3K δ IC50
T1 construct: purchased Upstate / Millipore Corporation

mTOR = molecular target: T2, mTOR (Homo sapiens, UniProt P42345); assay: mTOR kinase inhibition assay (radiometric or LanthaScreen TR-FRET); conditions: read-out: mTORC IC50
T2 construct: purchased Invitrogen

PI3K α (p110α/p85α) = molecular target: T3, PI3K α (p110α/p85α) (Homo sapiens, UniProt P42336); assay: PI 3-Kinase (human) HTRF assay, PI3K α; conditions: read-out: PI3K α IC50
T3 construct: purchased Upstate / Millipore Corporation

PI3K γ (p110γ) = molecular target: T4, PI3K γ (p110γ) (Homo sapiens, UniProt P48736); assay: PI 3-Kinase (human) HTRF assay, PI3K γ; conditions: read-out: PI3K γ IC50
T4 construct: purchased Upstate / Millipore Corporation

PI3K β (p110β/p85α) = molecular target: T5, PI3K β (p110β/p85α) (Homo sapiens, UniProt P42338); assay: PI 3-Kinase (human) HTRF assay, PI3K β; conditions: read-out: PI3K β IC50
T5 construct: purchased Upstate / Millipore Corporation
T5 sequence (P42338 whole entry): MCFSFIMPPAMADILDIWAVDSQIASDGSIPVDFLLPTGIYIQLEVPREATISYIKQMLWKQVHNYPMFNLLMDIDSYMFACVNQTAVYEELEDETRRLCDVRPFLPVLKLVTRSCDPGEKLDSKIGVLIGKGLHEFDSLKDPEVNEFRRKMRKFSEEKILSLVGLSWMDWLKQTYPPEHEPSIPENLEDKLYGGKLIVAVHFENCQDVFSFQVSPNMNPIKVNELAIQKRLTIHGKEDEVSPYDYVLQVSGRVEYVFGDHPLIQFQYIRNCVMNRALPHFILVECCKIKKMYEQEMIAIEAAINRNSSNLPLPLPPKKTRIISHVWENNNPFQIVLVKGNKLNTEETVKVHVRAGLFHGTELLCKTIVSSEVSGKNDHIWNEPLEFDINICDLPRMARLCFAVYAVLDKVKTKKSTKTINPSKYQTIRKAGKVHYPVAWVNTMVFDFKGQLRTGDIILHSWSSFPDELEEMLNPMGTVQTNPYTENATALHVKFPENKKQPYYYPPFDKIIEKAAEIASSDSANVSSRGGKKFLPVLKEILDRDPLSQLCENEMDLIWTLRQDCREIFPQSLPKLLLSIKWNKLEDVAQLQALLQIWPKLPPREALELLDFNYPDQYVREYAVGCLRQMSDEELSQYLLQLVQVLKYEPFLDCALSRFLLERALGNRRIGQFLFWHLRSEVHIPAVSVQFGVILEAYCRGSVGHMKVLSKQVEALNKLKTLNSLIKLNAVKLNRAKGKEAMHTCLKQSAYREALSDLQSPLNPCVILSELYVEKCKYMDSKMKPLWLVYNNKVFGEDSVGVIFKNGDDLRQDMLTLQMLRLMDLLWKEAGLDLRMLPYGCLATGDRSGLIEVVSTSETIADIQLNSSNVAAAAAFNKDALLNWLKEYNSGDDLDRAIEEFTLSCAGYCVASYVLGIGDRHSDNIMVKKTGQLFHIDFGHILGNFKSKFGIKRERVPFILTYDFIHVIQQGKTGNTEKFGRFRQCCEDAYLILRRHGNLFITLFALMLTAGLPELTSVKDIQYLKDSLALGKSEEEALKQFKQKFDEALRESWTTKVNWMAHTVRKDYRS
T5 sequence (P27986 whole entry partner): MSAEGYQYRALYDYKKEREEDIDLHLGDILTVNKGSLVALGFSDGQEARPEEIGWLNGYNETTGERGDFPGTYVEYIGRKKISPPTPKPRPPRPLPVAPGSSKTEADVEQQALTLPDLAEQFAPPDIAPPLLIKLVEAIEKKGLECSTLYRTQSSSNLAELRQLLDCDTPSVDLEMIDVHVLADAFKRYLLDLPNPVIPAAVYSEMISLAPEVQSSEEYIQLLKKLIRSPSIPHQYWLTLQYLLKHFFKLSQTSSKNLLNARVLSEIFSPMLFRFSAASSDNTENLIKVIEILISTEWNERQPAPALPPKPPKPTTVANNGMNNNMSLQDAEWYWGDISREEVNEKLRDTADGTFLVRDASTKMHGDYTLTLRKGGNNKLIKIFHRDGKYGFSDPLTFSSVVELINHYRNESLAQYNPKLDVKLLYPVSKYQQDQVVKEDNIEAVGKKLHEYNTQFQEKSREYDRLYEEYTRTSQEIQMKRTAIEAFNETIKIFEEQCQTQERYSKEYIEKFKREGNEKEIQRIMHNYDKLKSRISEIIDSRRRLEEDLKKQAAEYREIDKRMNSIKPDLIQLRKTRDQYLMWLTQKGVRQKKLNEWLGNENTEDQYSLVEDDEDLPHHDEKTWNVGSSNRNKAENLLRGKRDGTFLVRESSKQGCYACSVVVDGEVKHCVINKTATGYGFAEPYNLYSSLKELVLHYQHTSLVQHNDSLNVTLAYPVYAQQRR

T4 sequence (P48736 whole entry): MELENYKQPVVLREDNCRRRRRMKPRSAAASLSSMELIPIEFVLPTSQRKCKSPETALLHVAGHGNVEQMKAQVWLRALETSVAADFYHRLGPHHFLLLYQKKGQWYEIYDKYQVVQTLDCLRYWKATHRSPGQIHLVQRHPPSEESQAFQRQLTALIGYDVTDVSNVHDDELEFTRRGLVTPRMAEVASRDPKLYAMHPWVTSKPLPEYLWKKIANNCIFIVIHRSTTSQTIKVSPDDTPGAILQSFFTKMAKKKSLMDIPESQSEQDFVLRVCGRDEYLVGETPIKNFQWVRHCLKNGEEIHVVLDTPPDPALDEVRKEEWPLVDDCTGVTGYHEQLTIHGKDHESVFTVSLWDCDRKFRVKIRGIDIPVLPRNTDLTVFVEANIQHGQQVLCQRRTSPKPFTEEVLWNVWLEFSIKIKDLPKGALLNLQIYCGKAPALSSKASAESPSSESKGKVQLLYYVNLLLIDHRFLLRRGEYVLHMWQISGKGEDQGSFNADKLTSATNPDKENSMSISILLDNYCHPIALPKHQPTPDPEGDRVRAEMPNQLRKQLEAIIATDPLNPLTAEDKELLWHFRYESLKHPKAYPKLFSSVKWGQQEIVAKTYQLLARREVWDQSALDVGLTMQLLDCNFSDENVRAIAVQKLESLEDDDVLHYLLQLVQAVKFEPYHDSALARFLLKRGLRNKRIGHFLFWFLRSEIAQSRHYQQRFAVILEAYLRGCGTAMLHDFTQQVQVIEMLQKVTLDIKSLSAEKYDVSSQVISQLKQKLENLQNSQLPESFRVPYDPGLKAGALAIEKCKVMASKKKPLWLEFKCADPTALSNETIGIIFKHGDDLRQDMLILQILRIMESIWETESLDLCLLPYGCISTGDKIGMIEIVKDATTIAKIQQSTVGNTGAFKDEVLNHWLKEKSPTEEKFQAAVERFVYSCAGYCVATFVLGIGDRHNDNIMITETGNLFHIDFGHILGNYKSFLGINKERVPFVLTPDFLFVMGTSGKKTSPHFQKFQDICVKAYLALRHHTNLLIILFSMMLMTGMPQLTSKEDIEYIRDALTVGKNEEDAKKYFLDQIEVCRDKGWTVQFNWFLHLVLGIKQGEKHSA
T3 sequence (P42336 whole entry): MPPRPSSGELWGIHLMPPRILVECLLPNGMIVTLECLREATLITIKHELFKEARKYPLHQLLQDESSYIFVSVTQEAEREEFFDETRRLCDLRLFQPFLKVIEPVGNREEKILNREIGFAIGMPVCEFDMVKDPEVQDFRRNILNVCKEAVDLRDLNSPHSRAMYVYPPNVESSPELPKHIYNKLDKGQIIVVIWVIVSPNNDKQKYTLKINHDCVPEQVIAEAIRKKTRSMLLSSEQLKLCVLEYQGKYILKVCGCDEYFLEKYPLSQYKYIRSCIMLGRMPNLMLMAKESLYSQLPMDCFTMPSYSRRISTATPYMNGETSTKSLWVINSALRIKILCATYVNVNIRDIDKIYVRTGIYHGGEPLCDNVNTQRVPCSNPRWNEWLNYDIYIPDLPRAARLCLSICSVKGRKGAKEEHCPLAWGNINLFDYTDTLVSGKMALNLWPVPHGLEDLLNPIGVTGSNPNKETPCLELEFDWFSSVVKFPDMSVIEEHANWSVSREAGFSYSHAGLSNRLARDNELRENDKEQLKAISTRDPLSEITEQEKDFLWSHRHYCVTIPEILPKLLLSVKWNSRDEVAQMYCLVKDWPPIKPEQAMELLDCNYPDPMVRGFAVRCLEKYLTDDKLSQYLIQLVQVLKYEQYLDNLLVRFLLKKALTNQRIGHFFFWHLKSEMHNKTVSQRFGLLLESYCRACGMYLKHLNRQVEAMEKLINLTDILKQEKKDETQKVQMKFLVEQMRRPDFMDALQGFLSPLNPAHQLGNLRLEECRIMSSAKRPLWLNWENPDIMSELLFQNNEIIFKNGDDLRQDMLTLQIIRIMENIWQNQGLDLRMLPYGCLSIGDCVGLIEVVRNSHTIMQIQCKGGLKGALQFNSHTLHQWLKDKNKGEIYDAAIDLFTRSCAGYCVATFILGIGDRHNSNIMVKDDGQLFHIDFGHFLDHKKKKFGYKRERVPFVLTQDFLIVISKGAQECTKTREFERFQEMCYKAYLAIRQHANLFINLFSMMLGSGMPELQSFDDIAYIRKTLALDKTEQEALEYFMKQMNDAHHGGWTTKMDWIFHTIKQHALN
T3 sequence (P27986 whole entry partner): as the sequence (P27986 whole entry partner) above
T1 sequence (O00329 whole entry): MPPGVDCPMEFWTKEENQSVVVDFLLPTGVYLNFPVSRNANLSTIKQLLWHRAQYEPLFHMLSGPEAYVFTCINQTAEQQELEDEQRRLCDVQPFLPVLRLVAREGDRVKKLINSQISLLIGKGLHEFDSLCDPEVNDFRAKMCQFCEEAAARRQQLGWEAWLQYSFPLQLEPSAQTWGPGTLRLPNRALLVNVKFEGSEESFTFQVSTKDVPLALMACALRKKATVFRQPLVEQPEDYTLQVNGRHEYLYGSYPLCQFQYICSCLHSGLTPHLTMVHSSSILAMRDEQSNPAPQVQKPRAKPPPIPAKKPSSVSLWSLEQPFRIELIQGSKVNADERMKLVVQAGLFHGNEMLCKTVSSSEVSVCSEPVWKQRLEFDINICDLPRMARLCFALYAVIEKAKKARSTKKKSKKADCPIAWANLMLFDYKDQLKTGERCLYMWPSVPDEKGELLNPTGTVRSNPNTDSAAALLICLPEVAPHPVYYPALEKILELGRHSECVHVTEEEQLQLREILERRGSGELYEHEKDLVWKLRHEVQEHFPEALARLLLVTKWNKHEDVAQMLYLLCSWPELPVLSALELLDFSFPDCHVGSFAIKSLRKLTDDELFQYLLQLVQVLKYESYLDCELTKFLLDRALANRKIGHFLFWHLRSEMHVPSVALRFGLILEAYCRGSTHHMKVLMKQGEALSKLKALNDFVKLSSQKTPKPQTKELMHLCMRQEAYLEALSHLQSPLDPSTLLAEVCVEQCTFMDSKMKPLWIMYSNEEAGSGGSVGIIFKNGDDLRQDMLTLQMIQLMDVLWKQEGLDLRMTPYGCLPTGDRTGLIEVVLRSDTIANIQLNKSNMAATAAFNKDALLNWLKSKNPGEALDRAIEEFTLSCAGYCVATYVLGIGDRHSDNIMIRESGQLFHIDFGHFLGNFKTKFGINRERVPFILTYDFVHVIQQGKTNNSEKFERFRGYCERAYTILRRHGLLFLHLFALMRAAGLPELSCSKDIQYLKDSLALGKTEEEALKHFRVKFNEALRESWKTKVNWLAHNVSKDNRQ
T1 sequence (P27986 whole entry partner): as the sequence (P27986 whole entry partner) above

Row | SMILES | IC50 (PI3K δ) [µM] | IC50 (PI3K α (p110α/p85α)) [µM] | IC50 (PI3K γ (p110γ)) [µM] | IC50 (PI3K β (p110β/p85α)) [µM] | IC50 (PI3K δ; Table 4 (PI3K α inhibitors)) [µM] | IC50 (PI3K γ (p110γ); Table 4 (PI3K α inhibitors)) [µM] | IC50 (PI3K β (p110β/p85α); Table 4 (PI3K α inhibitors)) [µM] | IC50 (mTOR) [µM] | IC50 (PI3K α (p110α/p85α); Table 4 (PI3K α inhibitors)) [µM] | IC50 (mTOR; Table 4 (PI3K α inhibitors)) [µM]
1 | Nc1nc2cc(-c3ccc4ncc(-c5ccnc(N6CCOCC6)c5)n4c3)ccc2o1 [Compound 52] | < 0.1 | < 0.1 | – | – | – | – | – | < 10 | – | –
2 | N#Cc1cnc2ccc(-c3ccc4oc(N)nc4c3)cc2c1Cl [Compound 77] | – | – | – | – | – | – | – | < 1 | – | –
3 | Nc1nc2cc(-c3ccc4oc(N)nc4c3)ccc2o1 [Compound 240] | < 10 | < 1 | – | – | – | – | – | < 10 | – | –
4 | COc1ncc(-c2ccc3ncc(C(=O)N4CCOCC4)n3c2)c2cn[nH]c12 [Compound 517] | < 10 | < 1 | < 10 | > 10 | – | – | – | – | – | –
5 | CC(C)N1CCC(n2cnc3ccc(-c4cncc(NS(=O)(=O)c5ccc(F)cc5F)c4)cc3c2=O)CC1 [Compound 519] | < 10 | < 1 | < 1 | < 10 | – | – | – | – | – | –
6 | CC(C)N1CCC(n2cnc3ccc(-c4cncc(NS(C)(=O)=O)c4)cc3c2=O)CC1 [Compound 520] | > 10 | > 10 | > 10 | > 10 | – | – | – | – | – | –
7 | COc1ncc(-c2ccc3ncn(C4CCN(C(C)C)CC4)c(=O)c3c2)cc1NS(=O)(=O)c1ccccc1 [Compound 522] | < 0.1 | < 0.1 | < 0.1 | < 0.1 | – | – | – | – | – | –
8 | CC(C)N1CCC(n2cnc3ccc(-c4cnc(Cl)c(NS(C)(=O)=O)c4)cc3c2=O)CC1 [Compound 523] | < 0.1 | < 0.1 | < 0.1 | < 1 | – | – | – | – | – | –
9 | COc1ncc(-c2ccc3ncn(C4CCN(C)CC4)c(=O)c3c2)cc1NS(=O)(=O)c1ccccc1 [Compound 524] | < 0.1 | < 0.1 | < 1 | < 0.1 | – | – | – | – | – | –
10 | COc1ncc(-c2ccc3ncn(C4CCN(C)CC4)c(=O)c3c2)cc1NS(C)(=O)=O [Compound 525] | < 0.1 | < 0.1 | < 10 | < 1 | – | – | – | – | – | –
11 | CN1CCC(n2cnc3ccc(-c4cnc(Cl)c(NS(C)(=O)=O)c4)cc3c2=O)CC1 [Compound 526] | < 1 | < 0.1 | > 10 | < 10 | – | – | – | – | – | –
12 | CN1CCC(n2cnc3ccc(-c4cnc(Cl)c(NS(=O)(=O)c5ccccc5)c4)cc3c2=O)CC1 [Compound 527] | < 0.1 | < 0.1 | < 1 | < 0.1 | – | – | – | – | – | –
13 | CN1CC(n2cnc3ccc(-c4ccc5oc(N)nc5c4)cc3c2=O)C1 [Compound 528] | > 10 | < 1 | > 10 | < 10 | – | – | – | – | – | –
14 | Nc1nc2cc(-c3cnc4ccc(C(=O)N5C6CCC5COC6)cn34)ccc2o1 [Compound 540] | > 10 | > 10 | > 10 | > 10 | – | – | – | – | – | –
15 | Cc1cc(-c2ccc3nc(N)oc3c2)cn2c(N3CCN(C)CC3)nnc12 [Compound 546] | > 10 | > 10 | > 10 | > 10 | – | – | – | – | – | –
16 | Cc1cc(-c2ccc3nc(N)oc3c2)cn2c(CCN3CCN(C)CC3)nnc12 [Compound 548] | > 10 | > 10 | > 10 | > 10 | – | – | – | – | – | –
17 | Cc1cc(-c2ccc3nc(N)oc3c2)cn2c(CN3CCN(C)CC3)nnc12 [Compound 549] | > 10 | > 10 | > 10 | > 10 | – | – | – | – | – | –
18 | Nc1nc2cc(-c3ccc4nc(N5CCOCC5)cnc4n3)ccc2o1 [Compound 558] | – | – | – | – | > 10 | > 10 | > 10 | – | > 10 | –
19 | Nc1nc2cc(-c3ccc4ncc(N5CCC(F)(F)CC5)nc4n3)ccc2o1 [Compound 564] | – | – | – | – | > 10 | < 0.1 | > 10 | – | < 0.1 | –
20 | CC1(C)CN(C2CN(c3cnc4ccc(-c5ccc6oc(N)nc6c5)nc4n3)C2)CCO1 [Compound 568] | – | – | – | – | > 10 | < 10 | > 10 | – | < 1 | –
21 | C[C@H](N)C(=O)N1CCN(c2cnc3ccc(-c4ccc5oc(N)nc5c4)nc3n2)CC1 [Compound 581] | – | – | – | – | < 0.1 | < 0.1 | < 0.1 | – | < 0.1 | –
22 | Nc1nc2cc(-c3ccc4ncc(N5CC(N6CCNCC6)C5)nc4n3)ccc2o1 [Compound 585] | – | – | – | – | > 10 | > 10 | > 10 | – | < 1 | –
23 | Nc1nc2cc(-c3ccc4ncc(N5CC(N6CCN(CC7CC7)CC6)C5)nc4n3)ccc2o1 [Compound 586] | – | – | – | – | – | – | – | – | < 0.1 | > 10
24 | CC(C)(N)C(=O)N1CCN(c2cnc3ccc(-c4ccc5oc(N)nc5c4)nc3n2)CC1 [Compound 591] | – | – | – | – | – | – | – | – | < 0.1 | > 10
25 | Nc1nc2cc(-c3ccc4ncc(N5CC(N6CCN(CCO)CC6)C5)nc4n3)ccc2o1 [Compound 597] | – | – | – | – | – | – | – | – | < 0.1 | > 10
26 | Cc1nccn1C1CN(c2cnc3ccc(-c4ccc5oc(N)nc5c4)nc3n2)C1 [Compound 601] | – | – | – | – | – | – | – | – | < 0.1 | > 10
27 | CC1(C)CN(C2CN(c3cnc4ccc(-c5ccc6oc(N)nc6c5)nc4n3)C2)CCN1 [Compound 603] | – | – | – | – | < 1 | – | – | – | < 0.1 | > 10
28 | CCN1CCN(C2CN(c3cnc4ccc(-c5ccc6oc(N)nc6c5)nc4n3)C2)CC1 [Compound 627] | – | – | – | – | – | – | – | – | < 0.1 | < 10

Continued, in another order:

Row | IC50 (PI3K δ) [µM] | IC50 (PI3K α (p110α/p85α)) [µM] | IC50 (PI3K γ (p110γ)) [µM] | IC50 (PI3K β (p110β/p85α)) [µM] | IC50 (PI3K δ; Table 4 (PI3K α inhibitors)) [µM] | IC50 (PI3K γ (p110γ); Table 4 (PI3K α inhibitors)) [µM] | IC50 (PI3K β (p110β/p85α); Table 4 (PI3K α inhibitors)) [µM] | SMILES | IC50 (mTOR) [µM] | IC50 (PI3K α (p110α/p85α); Table 4 (PI3K α inhibitors)) [µM] | IC50 (mTOR; Table 4 (PI3K α inhibitors)) [µM]
29 | > 10 | > 10 | > 10 | > 10 | – | – | – | O=C(c1cnc2ccc(-c3ccc4c(Nc5ccccc5)nsc4c3)cn12)N1CCOCC1 [Compound 505] | – | – | –
30 | > 10 | < 0.1 | > 10 | > 10 | – | – | – | O=C(c1cnc2ccc(-c3cncc4[nH]ncc34)cn12)N1CCOCC1 [Compound 506] | – | – | –
31 | > 10 | > 10 | > 10 | > 10 | – | – | – | Cc1cc2ncc(C(=O)N3CCOCC3)n2cc1-c1ccc2oc(N)nc2c1 [Compound 507] | – | – | –
32 | < 1 | < 0.1 | < 10 | < 10 | – | – | – | C[C@@H]1CN(C2CN(C(=O)c3cnc4ccc(-c5ccc6oc(N)nc6c5)cn34)C2)CCN1C [Compound 508] | – | – | –
33 | > 10 | > 10 | > 10 | > 10 | – | – | – | O=C(c1cnc2ccc(-c3ccc4c(Nc5ccccc5)noc4c3)cn12)N1CCOCC1 [Compound 509] | – | – | –
34 | < 1 | < 0.1 | < 10 | < 10 | – | – | – | C[C@H]1CN(C2CN(C(=O)c3cnc4ccc(-c5ccc6oc(N)nc6c5)cn34)C2)CCN1 [Compound 510] | – | – | –
35 | > 10 | < 1 | < 10 | > 10 | – | – | – | CC1(C)CN(C(=O)c2cnc3ccc(-c4ccc5oc(N)nc5c4)cn23)CCO1 [Compound 513] | – | – | –
36 | < 0.1 | < 0.1 | < 1 | < 10 | – | – | – | CC1(C)CN(C2CN(C(=O)c3cnc4ccc(-c5ccc6oc(N)nc6c5)cn34)C2)CCN1 [Compound 515] | – | – | –
37 | > 10 | < 1 | > 10 | > 10 | – | – | – | O=C(c1cnc2ccc(-c3cnc(Cl)c4[nH]ncc34)cn12)N1CCOCC1 [Compound 516] | – | – | –
38 | > 10 | < 1 | > 10 | > 10 | – | – | – | CN1CCN(n2cnc3ccc(-c4ccc5oc(N)nc5c4)cc3c2=O)CC1 [Compound 518] | – | – | –
39 | < 1 | < 0.1 | < 1 | < 1 | – | – | – | CN1CC2CN(C(=O)c3cnc4ccc(-c5ccc6oc(N)nc6c5)cn34)CC2C1 (stereo not drawn) [Compound 533] | – | – | –
40 | > 10 | < 10 | > 10 | > 10 | – | – | – | O=C(c1cnc2ccc(-c3cnc4cn[nH]c4c3)cn12)N1CCOCC1 [Compound 535] | – | – | –
41 | > 10 | > 10 | > 10 | > 10 | – | – | – | CN1CCN(c2nnc3ccc(-c4ccc5nc(N)oc5c4)cn23)CC1 [Compound 542] | – | – | –
42 | > 10 | < 1 | > 10 | > 10 | – | – | – | Nc1nc2ccc(-c3ccc4ncc(C(=O)N5CCOCC5)n4c3)cc2[nH]1 [Compound 544] | – | – | –
43 | > 10 | > 10 | > 10 | > 10 | – | – | – | CN1CCN(CCc2nnc3ccc(-c4ccc5nc(N)oc5c4)cn23)CC1 [Compound 545] | – | – | –
44 | > 10 | > 10 | > 10 | > 10 | – | – | – | CN1CCN(Cc2nnc3ccc(-c4ccc5nc(N)oc5c4)cn23)CC1 [Compound 547] | – | – | –
45 | < 10 | < 0.1 | < 0.1 | < 1 | – | – | – | Nc1nc2cc(-c3ccc4ncc(C(=O)NCCOCC(=O)O)n4c3)ccc2o1 [Compound 551] | – | – | –
46 | – | – | – | – | > 10 | < 0.1 | < 1 | Nc1nc2cc(-c3ccc4ncc(N5CCOCC5)cc4n3)ccc2o1 [Compound 573] | – | < 0.1 | –
47 | – | – | – | – | < 1 | < 1 | < 1 | C[C@H](N)C(=O)N1CCN(c2cnc3ccc(-c4ccc5oc(N)nc5c4)nc3c2)CC1 [Compound 589] | – | < 0.1 | –
48 | – | – | – | – | < 1 | < 1 | < 0.1 | C[C@@H](N)C(=O)N1CCN(c2cnc3ccc(-c4ccc5oc(N)nc5c4)nc3c2)CC1 [Compound 590] | – | < 0.1 | –
49 | – | – | – | – | < 1 | < 0.1 | < 1 | Nc1nc2cc(-c3ccc4ncc(N5CCN(C(=O)C6(N)CC6)CC5)cc4n3)ccc2o1 [Compound 593] | – | < 0.1 | –
